Experimental data from US10941157B2, “Pesticidal compositions and uses thereof” (Gilead Apollo, LLC, priority 2015, dated 2021).
Converted amounts (≈) assume the structure as drawn. Where two headings read alike, the source gives them in different places.

Experiments:
Type in all cases: cell-based
[1] = tested on: Botrtyis cinerea (Bc); assay: In vitro pathogen growth inhibition assay, Bc; settings: 48 h
Summary of the method: (§1)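 Value reported is the compound concentration reaching ≥90% growth inhibition, from OD readings at 24 and 48 h after blank subtraction, confirmed visually. Inoculum was spores diluted in 17% V8 medium, except Rs, using 1.5 mm mycelial plugs in ¼ PDB; actual compound concentration corrected via OD600.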

[2] = tested on: Collectotrichum graminicola (Cg); assay: In vitro pathogen growth inhibition assay, Cg; settings: 48 h
Summary of the method: as §1

[3] = tested on: Diplodia maydis (Dm); assay: In vitro pathogen growth inhibition assay, Dm; settings: Stenocarpella maydis, 48 h
Summary of the method: (§2)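 Spores in 17% V8 liquid medium, or 1.5 mm Rs mycelial plugs in ¼ PDB, incubated with compound; final concentration checked by OD600 for precipitation. OD readings at 24 and 48 h, blank-subtracted, plus visual ratings; value is concentration giving ≥90% growth inhibition.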

[4] = tested on: Fusarium moniliforme (Fm); assay: In vitro pathogen growth inhibition assay, Fm; settings: Fusarium verticillioides
Summary of the method: as §1

[5] = tested on: Fusarium virguliforme (Fv); assay: In vitro pathogen growth inhibition assay, Fv
Summary of the method: as §2

[6] = tested on: Phytophthora capsici (Pc); assay: In vitro pathogen growth inhibition assay, Pc; settings: 48 h
Summary of the method: as §2

[7] = tested on: Rhizoctonia solani (Rs); assay: In vitro pathogen growth inhibition assay, Rs (mycelial plugs); settings: Rhizoctonia solani, 48 h
Summary of the method: as §2

[8] = tested on: Septoria tritici (St); assay: In vitro pathogen growth inhibition assay, St; settings: Zymoseptoria tritici, 48 h
Summary of the method: as §1

[9] = ≥90% growth inhibition, 48 hours, vs 2% DMSO control, read-out: Compound Concentration (ppm) sufficient for ≥90% inhibition of Bc
[10] = ≥90% growth inhibition, 48 hours, vs 2% DMSO control, read-out: Compound Concentration (ppm) sufficient for ≥90% inhibition of Cg
[11] = ≥90% growth inhibition, 48 hours, vs 2% DMSO control, read-out: Compound Concentration (ppm) sufficient for ≥90% inhibition of Dm
[12] = ≥90% growth inhibition, 48 hours, vs 2% DMSO control, read-out: Compound Concentration (ppm) sufficient for ≥90% inhibition of Fm
[13] = ≥90% growth inhibition, 48 hours, vs 2% DMSO control, read-out: Compound Concentration (ppm) sufficient for ≥90% inhibition of Fv
[14] = ≥90% growth inhibition, 48 hours, vs 2% DMSO control, read-out: Compound Concentration (ppm) sufficient for ≥90% inhibition of Pc
[15] = ≥90% growth inhibition, mycelial plugs, 48 hours, vs 2% DMSO control, read-out: Compound Concentration (ppm) sufficient for ≥90% inhibition of Rs
[16] = ≥90% growth inhibition, 48 hours, vs 2% DMSO control, read-out: Compound Concentration (ppm) sufficient for ≥90% inhibition of St
[17] = ≥90% inhibition, 48 hours vs 2% DMSO control, read-out: Compound Concentration (ppm) sufficient for ≥90% inhibition of growth, Bc
[18] = ≥90% inhibition, 48 hours vs 2% DMSO control, read-out: Compound Concentration (ppm) sufficient for ≥90% inhibition of growth, Cg
[19] = ≥90% inhibition, 48 hours vs 2% DMSO control, read-out: Compound Concentration (ppm) sufficient for ≥90% inhibition of growth, Dm
[20] = ≥90% inhibition, 48 hours vs 2% DMSO control, read-out: Compound Concentration (ppm) sufficient for ≥90% inhibition of growth, Fm
[21] = ≥90% inhibition, 48 hours vs 2% DMSO control, read-out: Compound Concentration (ppm) sufficient for ≥90% inhibition of growth, Fv
[22] = ≥90% inhibition, 48 hours vs 2% DMSO control, read-out: Compound Concentration (ppm) sufficient for ≥90% inhibition of growth, Pc
[23] = ≥90% inhibition, mycelial plugs, 48 hours vs 2% DMSO control, read-out: Compound Concentration (ppm) sufficient for ≥90% inhibition of growth, Rs
[24] = ≥90% inhibition, 48 hours vs 2% DMSO control, read-out: Compound Concentration (ppm) sufficient for ≥90% inhibition of growth, St

| SMILES | IC90 [1, 9] | IC90 [2, 10] | IC90 [3, 11] | IC90 [4, 12] | IC90 [5, 13] | IC90 [6, 14] | IC90 [7, 15] | IC90 [8, 16] | IC90 [1, 17] | IC90 [2, 18] | IC90 [3, 19] | IC90 [4, 20] | IC90 [5, 21] | IC90 [6, 22] | IC90 [7, 23] | IC90 [8, 24] | other results |
| --- | --- | --- | --- | --- | --- | --- | --- | --- | --- | --- | --- | --- | --- | --- | --- | --- | --- |
| COc1ccc(F)cc1[C@H](Cn1c(=O)n([C@@H](C)C(=O)N2CCCC2)c(=O)c2c(C)c(-n3cccn3)sc21)OC(C)C [Compound I-063] |  |  |  |  |  |  |  |  | 0.4 µg/mL (≈ 0.685 µM) | 0.4 µg/mL (≈ 0.685 µM) | ≥ 0.4 µg/mL | 0.08 µg/mL (≈ 0.137 µM) | 0.4 µg/mL (≈ 0.685 µM) | > 50 µg/mL | 2 µg/mL (≈ 3.43 µM) | ≥ 50 µg/mL |  |
| COc1ccccc1[C@H](Cn1c(=O)n([C@H](C)C(=O)N(C)C(C)C)c(=O)c2c(C)c(-n3nccn3)sc21)OCCC#N [Compound I-238] | 2 µg/mL (≈ 3.45 µM) | 10 µg/mL (≈ 17.3 µM) | 10 µg/mL (≈ 17.3 µM) | 2 µg/mL (≈ 3.45 µM) | 10 µg/mL (≈ 17.3 µM) | > 50 µg/mL | 10 µg/mL (≈ 17.3 µM) | > 50 µg/mL |  |  |  |  |  |  |  |  |  |
| COc1ccc(F)cc1[C@H](Cn1c(=O)n(C(C)(C)C(=O)NC(C)C)c(=O)c2c(C)c(-n3cncn3)sc21)OCCC#N [Compound I-317] |  |  |  |  |  |  |  |  |  |  |  |  |  |  |  |  | IC90 ([1]; concentration sufficient to ≥90% inhibition of growth, 48 hours vs 2% DMSO control, read-out: Compound Concentration (ppm) for ≥90% inhibition, Bc): 50 µg/mL (≈ 83.7 µM); IC90 ([2]; concentration sufficient to ≥90% inhibition of growth, 48 hours vs 2% DMSO control, read-out: Compound Concentration (ppm) for ≥90% inhibition, Cg): 50 µg/mL (≈ 83.7 µM); IC90 ([3]; concentration sufficient to ≥90% inhibition of growth, 48 hours vs 2% DMSO control, read-out: Compound Concentration (ppm) for ≥90% inhibition, Dm): > 50 µg/mL; IC90 ([4]; concentration sufficient to ≥90% inhibition of growth, 48 hours vs 2% DMSO control, read-out: Compound Concentration (ppm) for ≥90% inhibition, Fm): 10 µg/mL (≈ 16.7 µM); IC90 ([5]; concentration sufficient to ≥90% inhibition of growth, 48 hours vs 2% DMSO control, read-out: Compound Concentration (ppm) for ≥90% inhibition, Fv): ≥ 10 µg/mL; IC90 ([6]; concentration sufficient to ≥90% inhibition of growth, 48 hours vs 2% DMSO control, read-out: Compound Concentration (ppm) for ≥90% inhibition, Pc): > 50 µg/mL; IC90 ([7]; concentration sufficient to ≥90% inhibition of growth, 48 hours vs 2% DMSO control, read-out: Compound Concentration (ppm) for ≥90% inhibition, Rs): > 50 µg/mL; IC90 ([8]; concentration sufficient to ≥90% inhibition of growth, 48 hours vs 2% DMSO control, read-out: Compound Concentration (ppm) for ≥90% inhibition, St): > 50 µg/mL |
| CCOC(=O)c1sc2c(c1C)c(=O)n([C@H](C)C(=O)N1CCCC1)c(=O)n2C[C@H](OCCC#N)c1cc(F)ccc1OC [Compound I-226] | 2 µg/mL (≈ 3.33 µM) | 2 µg/mL (≈ 3.33 µM) | ≥ 2 µg/mL | 0.08 µg/mL (≈ 0.133 µM) | 2 µg/mL (≈ 3.33 µM) | > 50 µg/mL | 0.08 µg/mL (≈ 0.133 µM) | > 50 µg/mL |  |  |  |  |  |  |  |  |  |
| COc1ccc(F)cc1[C@@H](O)Cn1c(=O)n(C(C)(C)C(=O)NC(C)C)c(=O)c2c(C)c(-n3cccn3)sc21 [Compound I-187] | 2 µg/mL (≈ 3.68 µM) | 10 µg/mL (≈ 18.4 µM) | 10 µg/mL (≈ 18.4 µM) | 0.4 µg/mL (≈ 0.736 µM) | 0.4 µg/mL (≈ 0.736 µM) | ≥ 50 µg/mL | 0.4 µg/mL (≈ 0.736 µM) | > 50 µg/mL |  |  |  |  |  |  |  |  |  |
| Cc1ccc(F)cc1[C@H](Cn1c(=O)n(C(C)(C)C(=O)NC(C)C)c(=O)c2c(C)c(-n3nccn3)sc21)OCCO [Compound I-245] | 0.4 µg/mL (≈ 0.698 µM) | 0.4 µg/mL (≈ 0.698 µM) | 2 µg/mL (≈ 3.49 µM) | 0.08 µg/mL (≈ 0.14 µM) | 0.08 µg/mL (≈ 0.14 µM) | 50 µg/mL (≈ 87.3 µM) | 0.08 µg/mL (≈ 0.14 µM) | ≥ 2 µg/mL |  |  |  |  |  |  |  |  |  |

Continued, in another order:

| IC90 [1, 9] | IC90 [2, 10] | IC90 [3, 11] | IC90 [4, 12] | IC90 [5, 13] | IC90 [6, 14] | IC90 [7, 15] | IC90 [8, 16] | IC90 [1, 17] | IC90 [2, 18] | IC90 [3, 19] | IC90 [4, 20] | IC90 [5, 21] | IC90 [6, 22] | IC90 [7, 23] | IC90 [8, 24] | SMILES | other results |
| --- | --- | --- | --- | --- | --- | --- | --- | --- | --- | --- | --- | --- | --- | --- | --- | --- | --- |
| 2 µg/mL (≈ 3.56 µM) | 10 µg/mL (≈ 17.8 µM) | > 50 µg/mL | 2 µg/mL (≈ 3.56 µM) | 2 µg/mL (≈ 3.56 µM) | > 50 µg/mL | 0.08 µg/mL (≈ 0.142 µM) | > 50 µg/mL |  |  |  |  |  |  |  |  | CCOC(=O)c1sc2c(c1C)c(=O)n(C(C)(C)C(=O)N1CCCC1)c(=O)n2C[C@H](O)c1cc(F)ccc1OC [Compound I-224] |  |
|  |  |  |  |  |  |  |  | 0.4 µg/mL (≈ 0.624 µM) | 2 µg/mL (≈ 3.12 µM) | ≥ 2 µg/mL | 0.08 µg/mL (≈ 0.125 µM) | 2 µg/mL (≈ 3.12 µM) | > 50 µg/mL | 0.4 µg/mL (≈ 0.624 µM) | > 50 µg/mL | COc1ccc(F)cc1[C@H](Cn1c(=O)n(C(C)(C)C(=O)NC(C)C)c(=O)c2c(C)c(-c3ncco3)sc21)OC1CCC(=O)CC1 [Compound I-024] |  |
|  |  |  |  |  |  |  |  | 10 µg/mL (≈ 15.9 µM) | 10 µg/mL (≈ 15.9 µM) | ≥ 10 µg/mL | 0.4 µg/mL (≈ 0.637 µM) | 10 µg/mL (≈ 15.9 µM) | > 50 µg/mL | ≥ 2 µg/mL | > 50 µg/mL | COc1ccc(F)cc1[C@H](Cn1c(=O)n(C(C)(C)C(=O)N2CCCC2)c(=O)c2c(C)c(-n3cccn3)sc21)OCC(C)(C)O [Compound I-138] |  |
| 2 µg/mL (≈ 3.54 µM) | 10 µg/mL (≈ 17.7 µM) | 2 µg/mL (≈ 3.54 µM) | 0.4 µg/mL (≈ 0.707 µM) | 0.4 µg/mL (≈ 0.707 µM) | > 50 µg/mL | 10 µg/mL (≈ 17.7 µM) | > 50 µg/mL |  |  |  |  |  |  |  |  | Cc1c(-n2nccn2)sc2c1c(=O)n(C(C)(C)C(=O)NC(C)C)c(=O)n2CCc1cc(F)ccc1CCCC#N [Compound I-328] |  |
